The values that follow come from patent publication US8101410B2 (Entelechon GmbH, priority 2005, dated 2012).

The test system of data set [1] is Nicotiana tabacum cv. Petit Havana SR1 shoots. As to the method: In one set of experiments uniformly looking ˜1 cm long shoots were taken while in a second set of experiments a bunch of 6-8 shoots were used.
For this purpose, shoots of Nicotiana tabacum cv. Petit Havana SR1 were obtained by multiplying the shoots regenerated from the leaf segments on MS medium supplemented with 2 mg/l BAP.

Data set [2] deals with shoots of codAps transgenic lines A, B, D and E of Brassica juncea cv. Varuna. The text has this: The codA gene was isolated in the inventors' laboratory from local strain of Arthrobacter globiformis (GenBank accession number AY589052, hereafter referred as codAps gene) and cloned into pPZP200lox(npt 11) vector (obtained from Dr. Deepak Pental, Department of Genetics, South Campus, University of Delhi, New Delhi, India). The resultant vector named as pSG was electroporated into Agrobacterium tumefaciens strain GV3101. Hypocotyl and cotyledonary petiolar explants were excised from 6 d old sterile seedlings were transformed using Agrobacterium tumefaciens strain GV3101/pSG/codAps.

In data set [3] the test system is Brassica juncea cv. Varuna wild type seeds/seedlings. Here is the method:
(§1) T2 seeds of various independent homozygous transgenic lines of Brassica juncea cv. […] Homozygous transgenic genotypes were identified based on 100 percent germination of T2 seed of various independent transformed lines in the presence of 50 mg/l kanamycin.

In data set [4] the test system is homozygous codAps transgenic lines A, B, D and E of Brassica juncea cv. Varuna seeds/seedlings. The settings on record: for seedling growth: transgenic lines. Here is the method: as §1
For these studies seeds from four homozygous transgenic lines (lines A, B, D and E) of T2 generation were used. The homozygous genotypes were identified based on 100 percent germination of seed in the presence of 50 mg/l kanamycin (i.e. otherwise lethal to wild type/non-transgenic lines).

Data set [5] deals with Brassica juncea cv. Varuna explants (wild type).
Data set [6] has as its system Brassica juncea wild type shoots.
In data set [7] the test system is Nicotiana tabacum L. The settings on record: Present Investigations.
In another data set the test system is Brassica juncea L. To be noted: Present Investigations.
The subject of data set [8] is plant cells. To be noted: Table 2, choline, present investigations.
Data set [9] has as its system wild type/non-transgenic lines of Brassica juncea cv. Varuna. As to the kind of experiment: Seed germination in the presence of kanamycin. Format: in vivo.
For data set [10], the system named is plant cells. To be noted: Table 2, range over plant species, literature; cited from earlier work.
The subject of another data set is Solanum tuberosum L. To be noted: Haldrup et al. (1998); cited from earlier work.
Data set [11] deals with Lycopersicon esculentum L. The settings on record: Haldrup et al. (1998); cited from earlier work.
Data set [12] deals with Nicotiana tabacum L. To be noted: Haldrup et al. (1998); cited from earlier work.
Where [13] appears, read: 60 mM choline, transgenic lines.
The mark [14] stands for this setting: lower concentrations of choline, shoot induction medium.

Like-named read-outs stand apart in the source and are kept apart here. A value given as a limit tells only on which side of the number the result lay.

Consider `C[N+](C)(C)CCO.[Cl-]` [Choline, choline chloride], for which, in [1] (40 mM choline), the “time to loss of green pigmentation followed by senescence/death after inoculation” value is ≤ 7 days. The shoot growth entry in data set [1] (MS medium with choline chloride 20 and 40 mM) is given as “significantly curtailed shoot growth”. The “growth of the shoots” value in data set [2] (40 mM choline, transgenic lines) was “no significant alteration in the growth”. In addition, the green pigmentation entry in data set [2] (setting [13]) is “no loss in green pigmentation”. Besides, the growth of shoots result is “suppression in the growth” in [2] (setting [13]) and “significantly curtailed the growth of shoots” in data set [6] (MS medium with choline chloride 5-60 mM, wild type). Also, the “choline concentration that shoots were able to withstand” value in [2] (transgenic lines A, B, D, E, MS medium) is listed as ≤ 60 mM. The “fresh weight of seedlings, lower than those raised in absence of choline” value in data set [3] (40 mM choline, MGM, 30 d) is on record as 90%. In data set [3] (MGM (half strength MS without sucrose/organics) with choline), the “seed germination and early seedling growth” value is given as “significantly curtailed”. Moreover, in data set [3] (MS medium supplemented with choline (20, 40 mM)), the “percent seed germination as well as seedling growth” value is on record as “suppressed significantly”. Moreover, the seed germination entry in [3] (MS medium, 40 mM choline) was “almost no/little seed germination”; in data set [4] (transgenic lines A, B, D, E, MS medium, all concentrations of choline tested (20, 40 mM)), 100%. For the same molecule, the “fresh weight of seedlings, lower than respective controls” value in [4] (four independent transgenic lines, 40 mM choline, MGM, 30 d) is given as 25-30%. In [4] (transgenic lines A, B, D, E, MGM, 40 mM choline vs 20 mM), the “seed germination and seedling growth” value is listed as “delay in seed germination as well as reduction in seedling growth”. Besides, the seedling growth entry in data set [4] (MS medium, 20 mM choline and below) is “comparable to those grown in the absence of choline”; in [4] (MS medium, 40 mM choline) it was “significant reduction in seedling growth”. Moreover, in [5] (40 mM choline), the “cotyledonary explants that lost green pigmentation completely” value is given as ~100%. Also, the cultures exhibiting callogenesis in data set [5] (40 mM choline) is listed as 100%. The “shoot induction (caulogenesis) from hypocotyl and cotyledonary petiolar explants” value in data set [5] (choline chloride 10, 20, 30, 40 mM in shoot induction medium (MS + BAP, NAA, AgNO3), 20 d) was “suppressed shoot induction”. The “expansion of the cotyledonary leaves of cotyledonary petiolar explants” value in [5] (choline in shoot induction medium, effect increases with concentration) is reported as “significantly curtailed the expansion of the cotyledonary leaves”. The “callogenesis i.e. callus induction” value in data set [5] (setting [14]) is reported as “did not cause any significant alteration in callogenesis”. Besides, the rhizogenesis result in data set [5] (setting [14]) was “promoted rhizogenesis”. Also, in [6] (choline 20 mM and above, wild type shoots), the “time to death of shoots after inoculation” value is ≤ 15 days. Besides, the “choline concentration giving loss in green pigmentation followed by browning/senescence leading to death” value in [6] (wild type shoots, MS medium) was ≥ 20 mM. The Selection concentration in the data set on Nicotiana tabacum L. [7], in the data set with Brassica juncea L. and in the data set with plant cells [8] was 5584 mg/L each time.
Consider `NC[C@H]1O[C@H](O[C@H]2[C@H](O)[C@@H](O[C@H]3O[C@H](CO)[C@@H](O)[C@H](N)[C@H]3O)[C@H](N)C[C@@H]2N)[C@H](O)[C@@H](O)[C@@H]1O` [Kanamycin], for which the “kanamycin concentration lethal to wild type/non-transgenic lines” value in data set [9] came to 50 mg/L.
Take `CP(=O)(O)CC[C@H](N)C(=O)O` [Phosphinothricin]: the Selection concentration in the data set with plant cells [10] was 5 to 10 mg/L.
As to `O=C[C@H](O)[C@@H](O)[C@H](O)CO` [Xylose], the Selection concentration in the data set with Solanum tuberosum L. was 3750 mg/L; in data set [11], 15000 mg/L; in the data set on Nicotiana tabacum L. [12], 20000 mg/L; with plant cells [10], 3750 to 20000 mg/L.
On to `[Cl-].[K+]` [potassium chloride, reference compound], for which the shoot induction result in [5] (potassium chloride 10, 20, 30, 40 mM in place of choline chloride) is listed as “no significant alteration”. The “expansion of cotyledons and/or green pigmentation” value in [5] (potassium chloride at highest concentration (40 mM)) is “did not cause any suppression in the expansion of cotyledons and/or alteration in green pigmentation”.
